Data published in patent US10517854B2, “Dosing regiments of celgosivir for the treatment of dengue” (60 Degrees Pharmaceuticals, LLC, priority 2013, dated 2019).
Read-outs that look alike come from different tables or passages of the source.

Experiments:
DENV2 (TSV01 strain) = assay: Cell-based flaviviral immunodetection assay (CFI), DENV2; conditions: Dengue virus, DENV2, BHK-21, 48 h, DENV2, BHK21 cells
Description: BHK21 cells were seeded at 1.3×104 in 96-well plate and incubated overnight at 37° C. in 5% CO2 incubator. Confluent monolayer of BHK21 cells were infected with DENV2 (TSV01 strain) at an MOI (multiplicity of infection) 0.3 in the presence of various concentrations of test compounds and incubated for 1 hour at 37° C. in 5% CO2 incubator. Infected cells were incubated with test compounds for another 48 hours at 37° C. in 5A CO2. Cells were fixed with methanol and mouse monoclonal antibody 4G2 was used to detect DENV E protein, which was quantified using a secondary anti-mouse antibody conjugated with horseradish peroxidase (HRP). Absorbance was read at 450 nm and dose-response curve was plotted accordingly. The 50% effective concentration (EC50), that is, the concentration of the test compound that decreased the level of viral E protein production by 50%, was calculated by nonlinear regression analysis.

[1] = test system: DENV2 in THP-1 human monocytes; assay: ADE infection of human monocytes (THP-1), plaque assay; type: cell-based; conditions: Dengue virus, THP-1, DENV2 + 4G2 antibody, 48 hours, read-out: EC50, suppression of viral replication under ADE condition
Description: The activity of celgosivir in infected human monocytes, one of the primary circulating cell types infected by dengue virus, was examined, THP-1 cells were grown in RPMI-1640 maintenance medium containing 10% fetal calf serum and 1% Penicillin-streptomycin and cultured in 37° C. incubator supplemented with 5% CO2. For ADE infection in THP-1 cells, virus (DENV2, MOI-10) was mixed with sub-neutralizing concentration of humanized 4G2 monoclonal antibody (0.05 μg/0.5 ml) and allowed to incubate on ice for 1 hr in the serum free medium, to allow immune complex formations. The immune complex was then added on to THP-1 (1×10^5) cells per well in a 24 well plate and further incubated for 2 hours at 37° C. incubator. An excess unbound immune complex was then removed by spinning cells at 1000 rpm for 5 min and then cells were supplemented with complete growth maintenance medium. For drug testing in the ADE condition, cells were mock (untreated) or celgosivir-treated for 48 hours, and finally media supernatant was collected for plaque assay analysis.

[2] = Population PK in dengue fever patients (NONMEM, predicted NCA parameters); type: in vivo, human; conditions: 400 mg loading dose then 200 mg every 12 hours for 9 doses
Description: Population pharmacokinetic (PK) analysis of castanospermine plasma concentration data after administration of celgosivir was performed using the non-linear mixed effects modelling software NONMEM (version 7.2.0). (16) Pharmacokinetic parameters were estimated using the first order conditional estimation method (FOCE) with eta-epsilon interaction. Due to limited data during the input phase, first-order absorption/formation of castanospermine was assumed. Between-subject variability was assumed to be log-nomally distributed. Model development was guided by objective function value (OFV), precision of the parameter estimates, inspection of standard goodness of lit plots and scientific plausability. The emperical Bayes estimates from the final model were used to predict individual concentrations for a standard saturated sampling design (i.e., samples collected at 0, 0.25, 0.5, 1, 1.5, 2, 4, 6 and 12 hours post-dose)) after the first dose (400 mg) and dose 9 (day 5; 200 mg). […] The NCA parameter values were derived using the statistical analysis software R (version 3.0.1). (17) NCA parameters after dose 9 were only determined for subject who received this dose. […]

[3] = cited from earlier work
[4] = cited from earlier work; for AUCss / Cmin,ss / t1/2 / tmax: HIV-positive patients
[5] = cited from earlier work
[6] = radiolabeled castanospermine, PO or IV, within 24 hr
[7] = celgosivir 10 mg/day for 14 days
[8] = celgosivir 20 mg/day for 14 days
[9] = celgosivir 40 mg/day for 14 days
[10] = celgosivir 80 mg/day for 14 days
[11] = celgosivir 160 mg/day for 14 days
[12] = celgosivir 240 mg/day for 14 days
[13] = celgosivir 360 mg/day for 14 days
[14] = celgosivir 450 mg/day for 14 days

For `O[C@H]1[C@H](O)[C@@H](O)CN2CC[C@H](O)[C@H]12` [Castanospermine], the EC50 (DENV2 (TSV01 strain)) was ~21 µM, the EC50 [1] was 14 µM and the “variability in exposure between subjects” value [2] was “small to moderate”. For the same compound, the “mean Cmax in the portal vein” value ([3]; 400 mg/kg celgosivir PO) was 105600 ng/mL, the “AUC 0-60 min” value ([3]; portal vein, 400 mg/kg celgosivir PO) was 63900 ng·h/mL and the “route of excretion of radioactivity” value [3, 6] was “majority of radioactivity was detected within urine”. For the same compound, the “urinary radioactivity identified as castanospermine” value [3, 6] was “more than 92%”, the AUCss [4, 7] was 1000 ng·h/mL and the “Cmin,ss” value [4, 7] was 8 ng/mL. For the same compound, the t1/2 [4, 7] was 13 h, the tmax [4, 7] was 0.7 h and the AUCss [4, 8] was 1750 ng·h/mL. The “Cmin,ss” value [4, 8] was 11 ng/mL, the t1/2 [4, 8] was 27 h and the tmax [4, 8] was 1 h. The AUCss [4, 9] was 3610 ng·h/mL, the “Cmin,ss” value [4, 9] was 23 ng/mL and the t1/2 [4, 9] was 30 h. The tmax [4, 9] was 1 h, the AUCss [4, 10] was 6530 ng·h/mL and the “Cmin,ss” value [4, 10] was 29 ng/mL. For the same compound, the t1/2 [4, 10] was 16 h, the tmax [4, 10] was 0.3 h and the AUCss [4, 11] was 13300 ng·h/mL. For the same compound, the “Cmin,ss” value [4, 11] was 70 ng/mL, the t1/2 [4, 11] was 21 h and the tmax [4, 11] was 0.8 h. For the same compound, the AUCss [4, 12] was 21500 ng·h/mL, the “Cmin,ss” value [4, 12] was 110 ng/mL and the t1/2 [4, 12] was 16 h. For the same compound, the tmax [4, 12] was 0.6 h, the AUCss [4, 13] was 32100 ng·h/mL and the “Cmin,ss” value [4, 13] was 179 ng/mL. The t1/2 [4, 13] was 15 h, the tmax [4, 13] was 0.7 h and the AUCss [4, 14] was 39800 ng·h/mL. The “Cmin,ss” value [4, 14] was 191 ng/mL, the t1/2 [4, 14] was 14 h and the excretion and metabolites ([4]; humans) was “excreted unchanged in the urine, with no other metabolites detected”. For the same compound, the gastrointestinal effects ([5]; 2 g/kg, sucrose- and starch containing diets) was “severe diarrhea and high intestinal bacterial counts” and the GI toxicity ([5]; diet of proteins, vitamins and glucose without sucrose or complex carbohydrates) was “ameliorated”.
